Laboratory results taken from US20250215039A1, “NUCLEOSIDES FOR TREATING CANCER” (PRIMEFOUR THERAPEUTICS, INC., priority 2022, published 2025).
Read-outs that look alike come from different tables or passages of the source.

Test system: cancer cell lines
Experiment: Cancer cell proliferation activity (CellTiterGlo, 72 h)
Format: cell-based
Conditions: 72 h, 72 h, read-out: IC50
Protocol: Dose response relationships on cell proliferation was assessed for representative Compounds of the Disclosure on cancer cell lines. Briefly, compound treatment of cells started one day after seeding with a final DMSO concentration of 0.1%, and was performed by nanodrop-dispensing using a Tecan Dispenser. 0.1% DMSO (solvent) and Staurosporine (10 μM) served as high control (100% viability) and low control (0% viability), respectively.
Cells were cultured in the appropriate media. For the assays, cells were seeded in white cell culture-treated flat and clear bottom multiwell plates and incubated at 37° C. overnight before compound was added. After incubation for 72 h at 37° C. at 5% or 10% CO2 dependent on the medium, cell plates were equilibrated to room temperature for one hour, CellTiterGlo reagent (Promega) was added and luminescence was measured approximately an hour later using a luminometer.
Raw data were converted into percent cell viability relative to the high and low control, which were set to 100% and 0%, respectively.
The IC50 values are summarized in Tables 9A-1, Table 10A, and Table 10B.

IC50 (5637 cell line (bladder)): 8.67 µM
IC50 (CLS439 cell line (bladder)): > 50 µM
IC50 (HS729 cell line (muscle)): > 50 µM
IC50 (JAR cell line (placenta)): > 50 µM
IC50 (U20S cell line, bone): > 50 µM
IC50 (Homo sapiens, 22Rv1, 72 h, 22RV1 cell line (prostate)): > 50 µM
IC50 (Homo sapiens, 786-0, 72 h, 786O cell line (kidney)): > 50 µM
IC50 (Homo sapiens, A204, 72 h, A204 cell line (muscle)): 1 µM
IC50 (Homo sapiens, A549, 72 h, A549 cell line, lung): > 50 µM
IC50 (Homo sapiens, A673, 72 h, A673 cell line (bone)): > 50 µM
IC50 (Homo sapiens, A2780, 72 h, A2780 cell line (ovary)): > 50 µM
IC50 (Homo sapiens, A-375, 72 h, A375 cell line (skin)): > 50 µM
IC50 (Homo sapiens, A-431, 72 h, A431 cell line (skin)): > 50 µM
IC50 (Homo sapiens, ACHN, ACHN cell line (kidney)): 3.2 µM
IC50 (Homo sapiens, ASPC1, 72 h, ASPC1 cell line (pancreas)): > 50 µM
IC50 (Homo sapiens, BT-20, 72 h, BT20 cell line (breast)): > 50 µM
IC50 (Homo sapiens, BXPC-3, 72 h, BXPC3 cell line (pancreas)): > 50 µM
IC50 (Homo sapiens, C-33-A, C33A cell line, endometrial): 4.92 µM
IC50 (Homo sapiens, CAKI-1, 72 h, CAKI1 cell line (kidney)): 1.36 µM
IC50 (Homo sapiens, COLO 205, 72 h, COLO205 cell line (colon)): > 50 µM
IC50 (Homo sapiens, COLO-678, 72 h, COLO678 cell line (colon)): > 50 µM
IC50 (Homo sapiens, Ca-Ski, CASKI cell line, endometrial): > 50 µM
IC50 (Homo sapiens, Caco-2, 72 h, CACO2 cell line (colon)): > 50 µM
IC50 (Homo sapiens, Calu-6, 72 h, CALU6 cell line (lung)): > 50 µM
IC50 (Homo sapiens, DLD-1, 72 h, DLD1 cell line (colon)): > 50 µM
IC50 (Homo sapiens, DU-145, 72 h, DU145 cell line (prostate)): > 50 µM
IC50 (Homo sapiens, EFO-21, 72 h, EFO21 cell line (ovary)): > 50 µM
IC50 (Homo sapiens, EJ-28, 72 h, EJ28 cell line (bladder)): > 50 µM
IC50 (Homo sapiens, Granta-519, 72 h, GRANTA-519 cell line (hematological)): 1.12 µM
IC50 (Homo sapiens, HCT-15, 72 h, HCT15 cell line (colon)): > 50 µM
IC50 (Homo sapiens, HCT-116, 72 h, HCT116 cell line (colon)): > 50 µM
IC50 (Homo sapiens, HEK293, 72 h, HEK293 cell line (kidney)): > 50 µM
IC50 (Homo sapiens, HL-60, 72 h, HL-60 cell line (hematological)): > 50 µM
IC50 (Homo sapiens, HT-29, 72 h, HT29 cell line (colon)): > 50 µM
IC50 (Homo sapiens, HT-1080, 72 h, HT1080 cell line (connective tissue)): > 50 µM
IC50 (Homo sapiens, HeLa, HELA cell line, endometrial): > 50 µM
IC50 (Homo sapiens, HepG2, 72 h, HEPG2 cell line (liver)): > 50 µM
IC50 (Homo sapiens, Hs-578T, HS578T cell line, breast): > 50 µM
IC50 (Homo sapiens, IGROV-1, 72 h, IGROV1 cell line (ovary)): > 50 µM
IC50 (Homo sapiens, IMR-90, 72 h, IMR90 cell line, lung): > 50 µM
IC50 (Homo sapiens, J82, 72 h, J82 cell line (bladder)): > 50 µM
IC50 (Homo sapiens, JEG-3, 72 h, JEG3 cell line (placenta)): > 50 µM
IC50 (Homo sapiens, JIMT-1, 72 h, JIMT1 cell line (breast)): > 50 µM
IC50 (Homo sapiens, K562, 72 h, K-562 cell line (hematological)): > 50 µM
IC50 (Homo sapiens, Kasumi 1, 72 h, KASUMI-1 cell line (hematological)): > 50 µM
IC50 (Homo sapiens, L-363, 72 h, L-363 cell line (hematological)): > 50 µM
IC50 (Homo sapiens, LoVo, LOVO cell line (colon)): > 50 µM
IC50 (Homo sapiens, MCF7, 72 h, MCF7 cell line (breast)): > 50 µM
IC50 (Homo sapiens, MDA-MB-231, 72 h, MDAMB231 cell line (breast)): > 50 µM
IC50 (Homo sapiens, MDA-MB-435, 72 h, MDAMB435 cell line (skin)): > 50 µM
IC50 (Homo sapiens, MDA-MB-436, 72 h, MDAMB436 cell line (breast)): > 50 µM
IC50 (Homo sapiens, MDA-MB-468, 72 h, MDAMB468 cell line (breast)): > 50 µM
IC50 (Homo sapiens, MG-63, 72 h, MG63 cell line (bone)): > 50 µM
IC50 (Homo sapiens, MHH-ES-1, 72 h, MHHES1 cell line (bone)): > 50 µM
IC50 (Homo sapiens, MIA PaCa-2, 72 h, MIAPACA2 cell line (pancreas)): > 50 µM
IC50 (Homo sapiens, MINO, MINO cell line (hematological)): 0.25 µM
IC50 (Homo sapiens, MV4-11, 72 h, MV4-11 cell line (hematological)): 3.4 µM
IC50 (Homo sapiens, NCI-H23, 72 h, NCI-H23 cell line (lung)): > 50 µM
IC50 (Homo sapiens, NCI-H82, 72 h, NCIH82 cell line (lung)): > 50 µM
IC50 (Homo sapiens, NCI-H292, 72 h, NCIH292 cell line (lung)): > 50 µM
IC50 (Homo sapiens, NCI-H460, 72 h, NCIH460 cell line (lung)): 5.15 µM
IC50 (Homo sapiens, OVCAR-3, 72 h, OVCAR3 cell line (ovary)): > 50 µM
IC50 (Homo sapiens, OVCAR-4, 72 h, OVCAR4 cell line (ovary)): > 50 µM
IC50 (Homo sapiens, PANC-1, 72 h, PANC1 cell line (pancreas)): > 50 µM
IC50 (Homo sapiens, PC-3, 72 h, PC3 cell line (prostate)): > 50 µM
IC50 (Homo sapiens, PLC-PRF-5, 72 h, PLCPRF5 cell line (liver)): > 50 µM
IC50 (Homo sapiens, Panc1005, 72 h, PANC1005 cell line (pancreas)): > 50 µM
IC50 (Homo sapiens, RD, RD cell line (muscle)): > 50 µM
IC50 (Homo sapiens, Ramos, RAMOS cell line (hematological)): 1.77 µM
IC50 (Homo sapiens, SAOS-2, 72 h, SAOS2 cell line (bone)): > 50 µM
IC50 (Homo sapiens, SF-268, 72 h, SF268 cell line (brain)): > 50 µM
IC50 (Homo sapiens, SF-295, 72 h, SF295 cell line (brain)): > 50 µM
IC50 (Homo sapiens, SK-BR-3, 72 h, SKBR3 cell line (breast)): 17 µM
IC50 (Homo sapiens, SK-HEP1, 72 h, SKHEP1 cell line (liver)): > 50 µM
IC50 (Homo sapiens, SK-LMS-1, 72 h, SKLMS1 cell line (uterus)): > 50 µM
IC50 (Homo sapiens, SK-MEL-5, 72 h, SKMEL5 cell line, skin): > 50 µM
IC50 (Homo sapiens, SK-MEL-28, 72 h, SKMEL28 cell line (skin)): > 50 µM
IC50 (Homo sapiens, SK-N-AS, SKNAS cell line (brain)): > 50 µM
IC50 (Homo sapiens, SK-N-SH, SKNSH cell line (brain)): > 50 µM
IC50 (Homo sapiens, SK-OV-3, 72 h, SKOV3 cell line (ovary)): > 50 µM
IC50 (Homo sapiens, SNB-75, 72 h, SNB75 cell line (brain)): > 50 µM
IC50 (Homo sapiens, SU-DHL10, 72 h, SU-DHL-10 cell line (hematological)): 1.97 µM
IC50 (Homo sapiens, SU-DHL-6, 72 h, SU-DHL-6 cell line (hematological)): > 50 µM
IC50 (Homo sapiens, SW-620, 72 h, SW620 cell line (colon)): > 50 µM
IC50 (Homo sapiens, T-24, 72 h, T24 cell line (bladder)): > 50 µM
IC50 (Homo sapiens, TE-671, 72 h, TE671 cell line (muscle)): > 50 µM
IC50 (Homo sapiens, THP-1, 72 h, THP-1 cell line (hematological)): > 50 µM
IC50 (Homo sapiens, U-87 MG, U87MG cell line (brain)): > 50 µM
IC50 (Homo sapiens, UMUC3, 72 h, UMUC3 cell line (bladder)): > 50 µM
IC50 (Homo sapiens, UO-31, 72 h, UO31 cell line (kidney)): > 50 µM
IC50 (Homo sapiens, WSU-NHL, WSU-NHL cell line (hematological)): 2.5 µM
IC50 (MT-3, 72 h, MT3 cell line (breast)): > 50 µM
IC50 (NCI-H358M, NCIH358M cell line (lung)): > 50 µM
IC50 (PBMC, PBMC (hematological)): > 50 µM
IC50 (RD-ES, RDES cell line (bone)): > 50 µM
SMILES: CC[C@]1(CO)O[C@@H](n2cc(F)c(N)nc2=O)C[C@@H]1O [Cpd. No. 2, 4-amino-1-((2R,4S,5R)-5-ethyl-4-hydroxy-5-(hydroxymethyl)tetrahydrofuran-2-yl)-5-fluoropyrimidin-2(1H)-one]
